The values below come from US7045528B2, “Benzofused heterozryl amide derivatives of thienopyridines useful as therapeutic agents, pharmaceutical compositions including the same, and methods for their use” (Agouron Pharmaceuticals, Inc., priority 2002, dated 2006).

For experiment [1], the system named is human umbilical vein endothelial cells (HUVEC). Description: HUVEC+VEGF proliferation assay. To be noted: Homo sapiens, HUVEC; VEGF 6 ng/mL, 72 h, MTT. The experiment is classed as cell-based. The method, then:
HUVEC+VEGF Proliferation Assay
This assay determines the ability of a test compound to inhibit the growth factor-stimulated proliferation of human umbilical vein endothelial cells (“HUVEC”). HUVEC cells (passage 3–4; Clonetics, Corp.) were thawed into EGM2 culture medium (Clonetics Corp) in T75 flasks. Fresh EGM2 medium was added to the flasks 24 hours later. Four or five days later, cells were exposed to another culture medium (F12K medium supplemented with 10% fetal bovine serum (FBS), 60 μg/mL endothelial cell growth supplement (ECGS), and 0.1 mg/mL heparin). Exponentially-growing HUVEC cells were used in experiments thereafter. Ten to twelve thousand HUVEC cells were plated in 96-well dishes in 100 μl of rich, culture medium (described above). The cells were allowed to attach for 24 hours in this medium. The medium was then removed by aspiration and 105 μl of starvation media (F12K+1% FBS) was added to each well. After 24 hours, 15 μl of test agent dissolved in 1% DMSO in starvation medium or this vehicle alone was added into each treatment well; the final DMSO concentration was 0.1%. One hour later, 30 μl of VEGF (30 ng/mL) in starvation media was added to all wells except those containing untreated controls; the final VEGF concentration was 6 ng/mL. Cellular proliferation was quantified 72 hours later by MTT dye reduction, at which time cells were exposed for 4 hours MTT (Promega Corp.). Dye reduction was stopped by addition of a stop solution (Promega Corp.) and absorbance at 595 nm was determined on a 96-well spectrophotometer plate reader.

For another experiment, the target named is T1, PDGFRβ (Homo sapiens, UniProt P09619).
T1 construct: expressed in transfected cells; host or cells: porcine aorta endothelial (PAE)-PDGFRβ cells
Description: PAE-PDGFRβ phosphorylation in PAE-PDGFRB cells assay. The experiment is classed as cell-based. The method, then:
PAE-PDGFRβ Phosphorylation in PAE-PDGFRB Cells Assay
This assay determines the ability of a test compound to inhibit the autophosphorylation of PDGFRβ in porcine aorta endothelial (PAE)-PDGFRβ cells. PAE cells that overexpress human PDGFRβ were used in this assay. The cells were cultured in Ham's F12 media supplemented with 10% fetal bovine serum (FBS) and 400 ug/ml G418. Twenty thousands cells were seeded in each well of a 96-well plate in 50 μL of growth media and allowed to attach for 6 hours at 37° C. Cells were then exposed to the starvation media (Ham's F12 media supplemented with 0.1% FBS) for 16 hours. After the starvation period was over, 10 μL of test agent in 5% DMSO in starvation media were added to the test wells and 10 μL of the vehicle (5% DMSO in starvation media) were added into the control wells. The final DMSO concentration in each well was 0.5%. Plates were incubated at 37° C. for 1 hour and the cells were then stimulated with 1 μg/mL PDGF-BB (R & D System) in the presence of 2 mM Na3VO4 for 8 minutes. The cells were washed once with 1 mm Na3VO4 in HBSS and lysed by adding 50 μL per well of lysis buffer. One hundred μL of dilution buffer were then added to each well and the diluted cell lysate was transferred to a 96-well goat ant-rabbit coated plate (Pierce), which was pre-coated with Rabbit anti Human PDGFRβ antibody (Santa Cruz). The plates were incubated at room temperature for 2 hours and washed seven times with 1% Tween 20 in PBS. HRP-PY20 (Santa Cruz) was diluted and added to the plate for a 30-minute incubation. Plates were then washed again and TMB peroxidase substrate (Kirkegaard & Perry) was added for a 10-minute incubation. One hundred μL of 0.09 N H2SO4 was added into each well of the 96-well plate to stop the reaction. Phosphorylation status was assessed by spectrophotometer reading at 450 nm. IC50 values were calculated by curve fitting using a four-parameter analysis.

The target of experiment [2] is T2, unphosphorylated VEGF-R2Δ50 (FLVK) (Homo sapiens, UniProt P35968, DEL940-989/E990V).
T2 construct: VEGF-R2Δ50 contains residues 806–939 and 990–1171; made in house; host or cells: baculovirus/insect cell system
The experiment in a line: VEGF-R2 coupled spectrophotometric assay, unphosphorylated VEGF-R2Δ50 (FLVK). In kind it is biochemical. To be noted: unphosphorylated VEGF-R2Δ50; for inhibition at 0.05 µM: 50 nM compound, read-out: FLVK (% inh @ 50 nM). The text has this: VEGF-R2 Construct for Assay:
This construct determines the ability of a test compound to inhibit tyrosine kinase activity. A construct (VEGF-R2Δ50) of the cytosolic domain of human vascular endothelial growth factor receptor 2 (VEGF-R2) lacking the 50 central residues of the 68 residues of the kinase insert domain was expressed in a baculovirus/insect cell system. Of the 1356 residues of full-length VEGF-R2, VEGF-R2Δ50 contains residues 806–939 and 990–1171, and also one point mutation (E990V) within the kinase insert domain relative to wild-type VEGF-R2. Autophosphorylation of the purified construct was performed by incubation of the enzyme at a concentration of 4 μM in the presence of 3 mM ATP and 40 mM MgCl2 in 100 mM HEPES, pH 7.5, containing 5% glycerol and 5 mM DTT, at 4° C. for 2 h. […] See Parast et al., Biochemistry, 37, 16788–16801 (1998).
Coupled Spectrophotometric (FLVK-P) Assay
The production of ADP from ATP that accompanies phosphoryl transfer was coupled to oxidation of NADH using phosphoenolpyruvate (PEP) and a system having pyruvate kinase (PK) and lactic dehydrogenase (LDH). The oxidation of NADH was monitored by following the decrease of absorbance at 340 nm (e340=6.22 cm^−1 mM^−1) using a Beckman DU 650 spectrophotometer. Assay conditions for phosphorylated VEGF-R2Δ50 (indicated as FLVK-P in the tables below) were the following: 1 mM PEP; 250 μM NADH; 50 units of LDH/mL; 20 units of PK/mL; 5 mM DTT; 5.1 mM poly(E4Y1); 1 mM ATP; and 25 mM MgCl2 in 200 mM HEPES, pH 7.5. Assay conditions for unphosphorylated VEGF-R2Δ50 (indicated as FLVK in the tables) were the following: 1 mM PEP; 250 μM NADH; 50 units of LDH/mL; 20 units of PK/mL; 5 mM DTT; 20 mM poly(E4Y1); 3 mM ATP; and 60 mM MgCl2 and 2 mM MnCl2 in 200 mM HEPES, pH 7.5. Assays were initiated with 5 to 40 nM of enzyme. Ki values were determined by measuring enzyme activity in the presence of varying concentrations of test compounds. […] The binding inhibitions were fitted to equation as described by Morrison. The data were analyzed using Enzyme Kinetic and Kaleidagraph software.

Setting [3] is: PAE cells overexpressing human PDGFRβ, PDGF-BB stimulated, read-out: PAE PDGFR autophos IC50 (nM) AVG.

As usually defined, the IC50 is the concentration that gives 50% inhibition. What is called Ki is the dissociation constant of the complex between target and ligand, obtained from inhibition or displacement. High values mean a looser hold on the target, low ones a stronger hold on the target.

Like-named read-outs stand apart in the source and are kept apart here.

T1 sequence (P09619 33-1106): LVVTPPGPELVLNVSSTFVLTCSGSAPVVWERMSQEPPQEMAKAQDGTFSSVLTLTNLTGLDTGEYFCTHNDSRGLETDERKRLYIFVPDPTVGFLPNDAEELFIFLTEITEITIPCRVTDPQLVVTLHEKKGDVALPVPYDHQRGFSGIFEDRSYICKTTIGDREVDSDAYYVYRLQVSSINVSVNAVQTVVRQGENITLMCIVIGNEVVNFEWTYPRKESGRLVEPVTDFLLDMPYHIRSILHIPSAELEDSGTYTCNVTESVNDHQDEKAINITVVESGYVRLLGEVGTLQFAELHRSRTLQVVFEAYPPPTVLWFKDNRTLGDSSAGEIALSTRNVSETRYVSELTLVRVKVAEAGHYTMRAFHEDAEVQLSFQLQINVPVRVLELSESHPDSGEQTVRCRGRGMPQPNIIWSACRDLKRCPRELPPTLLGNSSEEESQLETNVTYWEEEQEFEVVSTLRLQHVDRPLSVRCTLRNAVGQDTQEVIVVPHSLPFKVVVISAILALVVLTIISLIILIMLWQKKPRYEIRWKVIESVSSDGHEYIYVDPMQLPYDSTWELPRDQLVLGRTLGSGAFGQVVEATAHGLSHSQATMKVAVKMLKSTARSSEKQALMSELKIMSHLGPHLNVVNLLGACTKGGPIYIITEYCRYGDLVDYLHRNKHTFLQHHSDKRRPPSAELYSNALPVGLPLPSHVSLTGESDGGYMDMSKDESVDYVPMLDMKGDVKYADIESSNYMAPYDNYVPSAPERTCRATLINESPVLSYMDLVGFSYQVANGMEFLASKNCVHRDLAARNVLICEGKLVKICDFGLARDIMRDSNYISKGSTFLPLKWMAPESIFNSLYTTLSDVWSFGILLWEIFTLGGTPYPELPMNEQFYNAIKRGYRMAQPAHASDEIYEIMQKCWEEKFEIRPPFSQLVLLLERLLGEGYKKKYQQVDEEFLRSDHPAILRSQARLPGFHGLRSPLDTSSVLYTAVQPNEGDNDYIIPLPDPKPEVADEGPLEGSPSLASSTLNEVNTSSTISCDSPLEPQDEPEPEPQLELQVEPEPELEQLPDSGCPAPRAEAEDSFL
T2 sequence (P35968 with tags, fused parts or gaps DEL940-989/E990V limits assumed): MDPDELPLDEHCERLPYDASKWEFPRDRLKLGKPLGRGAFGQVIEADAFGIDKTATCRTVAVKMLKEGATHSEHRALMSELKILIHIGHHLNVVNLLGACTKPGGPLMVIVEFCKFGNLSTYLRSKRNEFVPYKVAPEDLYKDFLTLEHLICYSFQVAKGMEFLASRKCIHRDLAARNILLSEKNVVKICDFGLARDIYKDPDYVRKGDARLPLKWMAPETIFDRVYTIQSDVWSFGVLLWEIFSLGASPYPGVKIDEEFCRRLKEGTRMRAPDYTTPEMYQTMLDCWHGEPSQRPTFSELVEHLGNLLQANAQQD

Take `Cc1c(C(=O)NC(C)C)c2ccc(Oc3ccnc4cc(-c5nccs5)sc34)cc2n1C` [Example 66, 1,2-Dimethyl-6-(2-thiazol-2-yl-thieno[3,2-b]pyridin-7-yloxy)-1H-indole-3-carboxylic acid isopropylamide]: the IC50 in experiment [1] is 5.8 nM. For the same compound, the IC50 on PDGFRβ (setting [3]) was 90.7 nM. In experiment [2], the inhibition at 0.05 µM was 75% and the affinity, expressed as Ki, was 5.2 nM.

Take `CNC(=O)c1c(C)n(C)c2cc(Oc3ccnc4cc(-c5ccccn5)sc34)ccc12` [Example 42, 1,2-Dimethyl-6-(2-pyridin-2-yl-thieno[3,2-b]pyridin-7-yloxy)-1H-indole-3-carboxylic acid methylamide]: the figures for the IC50 (in experiment [1]; at PDGFRβ (setting [3])) were 4.34 nM and 8.9 nM, respectively. Moreover, the inhibition at 0.05 µM in experiment [2] amounted to 76%. The compound further came in with a Ki in experiment [2] of 2.8 nM.

As for `CNC(=O)c1c(C)n(C)c2cc(Oc3ccnc4cc(C(=O)N5C[C@@H](O)[C@@H](O)C5)sc34)ccc12` [Example 37, 6-[2-(3,4-Dihydroxy-pyrrolidine-1-carbonyl)-thieno[3,2-b]pyridin-7-yloxy]-1,2-dimethyl-1H-indole-3-carboxylic acid methylamide], in experiment [1], the 50% inhibitory concentration (IC50) came out at 10 nM. Further, in experiment [2], the inhibition at 0.05 µM is 66% and the Ki amounted to 4.3 nM.

For `CNC(=O)c1c(C)n(C)c2cc(Oc3ccnc4cc(C(=O)N5CCC(CN)C5)sc34)ccc12` (stereo not shown) [Example 45, 6-[2-(3-Aminomethyl-pyrrolidine-1-carbonyl)-thieno[3,2-b]pyridin-7-yloxy]-1,2-dimethyl-1H-indole-3-carboxylic acid methylamide], in experiment [1], the IC50 amounted to 10 nM. Also, on PDGFRβ (setting [3]), the half-maximal inhibitory concentration (IC50) was determined as 26.9 nM. In addition, in experiment [2], the inhibition at 0.05 µM turned out to be 64% and the inhibitory constant (Ki) amounted to 4.65 nM.

`Cc1c(C(=O)NCC2CC2)c2ccc(Oc3ccnc4cc(-c5nccn5C)sc34)cc2n1C` [Example 55, N-(Cyclopropylmethyl)-1,2-dimethyl-6-{[2-(1-methyl-1H-imidazol-2-yl)thieno[3,2-b]pyridin-7-yl]oxy}-1H-indole-3-carboxamide]: the IC50 in experiment [1] is 5.8 nM; on PDGFRβ (setting [3]), 31 nM. In addition, the inhibition at 0.05 µM in experiment [2] worked out at 62%. For the same compound, the inhibition constant Ki in experiment [2] stood at 4.86 nM.

On to `COC[C@@H]1CCCN1C(=O)c1cc2nccc(Oc3ccc4c(C(=O)NCC5CC5)c(C)sc4c3)c2s1` [Example 132, 6[(2-{[(2S)-2-(Methoxymethyl)pyrrolidin-1-yl]carbonyl}thieno[3,2-b]pyridin-7-yl)oxy]-2-methylbenzo[b]thiophene-3-carboxyllc acid (cyclopropylmethyl)amide], for which the IC50 in experiment [1] amounted to 5.8 nM. On PDGFRβ (setting [3]), the half-inhibitory concentration (IC50) is 467 nM. Further, in experiment [2], the inhibition at 0.05 µM amounted to 80% and the Ki amounted to 1.78 nM.

For the compound `CNC(=O)c1csc(-c2cc3nccc(Oc4ccc5c(C(=O)NC)c(C)n(C)c5c4)c3s2)n1` [Example 43, 1,2-Dimethyl-6-[2-(4-methylcarbamoyl-thiazol-2-yl)-thieno[3,2-b]pyridin-7-yloxy]-1H-indole-3-carboxylic acid methylamide], the IC50 in experiment [1] amounted to 10 nM. Besides, in experiment [2], the inhibition at 0.05 µM worked out at 67% and the affinity, expressed as Ki, was 3.21 nM.

Consider `Cc1oc2cc(Oc3ccnc4cc(C(=O)N5CCC[C@H]5CO)sc34)ccc2c1C(=O)NCC(C)C` [Example 86, 2-Methyl-6-[2-(2-hydroxymethyl-pyrrolidine-1-carbonyl)-thieno[3,2-b]pyridin-7-yloxy]-benzofuran-3-carboxylic acid isobutyl amide], for which, in experiment [1], the IC50 came out at 3.07 nM. In addition, on PDGFRβ (setting [3]), the 50% inhibitory concentration (IC50) stood at 17.9 nM. For the same compound, in experiment [2], the inhibition at 0.05 µM amounted to 81% and the affinity corresponds to a Ki of 1.44 nM.

With `CCc1oc2cc(Oc3ccnc4cc(C(=O)N5CCC5)sc34)ccc2c1C(=O)NC` [Example 98, 6-[2-(Azetidine-1-carbonyl)-thieno[3,2-b]pyridin-7-yloxy]-2-ethyl-benzofuran-3-carboxylic acid methylamide], in experiment [1], the IC50 amounted to 9.4 nM. For the same compound, the IC50 on PDGFRβ (setting [3]) was found to be 127 nM. In experiment [2], the inhibition at 0.05 µM was 86% and the affinity, expressed as Ki, was 0.38 nM.

Regarding `CNC(=O)c1c(C)n(C)c2cc(Oc3ccnc4cc(-c5cccc(OC)n5)sc34)ccc12` [Example 49, 6-[2-(6-Methoxy-pyridin-2-yl)-thieno[3,2-b]pyridin-7-yloxy]-1,2-dimethyl-1H-indole-3-carboxylic acid methylamide], the 50% inhibitory concentration (IC50) in experiment [1] was found to be 7 nM. In experiment [2], the inhibition at 0.05 µM is 67% and affinity was put at a Ki of 16 nM.

`CNC(=O)c1c(C)n(C)c2cc(Oc3ccnc4cc(C(=O)N5CC[C@@H](NC)C5)sc34)ccc12` [Example 35, 1,2-Dimethyl-6-[2-(3-methylamino-pyrrolidine-1-carbonyl)-thieno[3,2-b]pyridin-7-yloxy]-1H-indole-3-carboxylic acid methylamide] displayed an IC50 at PDGFRβ of 70 nM. In addition, in experiment [2], the inhibition at 0.05 µM is 23% and the inhibition constant Ki was 35.2 nM.

Turning to `CNCC1CCN(C(=O)c2cc3nccc(Oc4ccc5c(C(=O)NC)c(C)n(C)c5c4)c3s2)C1` (stereo not shown) [Example 46, 1,2-Dimethyl-6-[2-(3-methylaminomethyl-pyrrolidine-1-carbonyl)-thieno[3,2-b]pyridin-7-yloxy]-1H-indole-3-carboxylic acid methylamide], in experiment [1], the IC50 amounted to 3.13 nM. Besides, in experiment [2], the inhibition at 0.05 µM worked out at 68% and the affinity corresponds to a Ki of 6.49 nM.

In the case of `CCC(=O)c1cc2nccc(Oc3ccc4c(C(=O)NC)c(C)n(C)c4c3)c2s1` [Example 51, 1,2-Dimethyl-6-(2-propionyl-thieno[3,2-b]pyridin-7-yloxy)-1H-indole-3-carboxylic acid methylamide], in experiment [1], the concentration for half-maximal inhibition (IC50) was 82 nM. Moreover, in experiment [2], the inhibition at 0.05 µM worked out at 34% and the inhibitory constant (Ki) worked out at 27.7 nM.
